Where two headings read alike, the source gives them in different places.
Tested on: NCI 60 cancer cell lines
Experiment: NCI anticancer screening over a panel of 60 cancer cells, single concentration 10 µM
Format: cell-based, human
Settings: Homo sapiens, read-out: % Growth Inhibition (GI %)
How it was run: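 Run under the NCI Compound Evaluation Branch protocol, each compound was tested once at 10 µM. The panel comprised 60 cancer cell lines of diverse tissue origin, including leukemia, lung, colon, CNS, renal, ovarian, breast and prostate.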

[1] = A549, Non-small cell lung cancer A549/ATCC, 10 μM
[2] = BT-549, Breast cancer BT-549, 10 μM
[3] = CAKI-1, Renal cancer CAKI-1, 10 μM
[4] = CCRF-CEM, Leukemia CCRF-CEM, 10 μM
[5] = COLO 205, Colon cancer COLO 205, 10 μM
[6] = DU-145, Prostate cancer DU-145, 10 μM
[7] = HCC 2998, Colon cancer HCC-2998, 10 μM
[8] = HCT-15, Colon cancer HCT-15, 10 μM
[9] = HCT-116, Colon cancer HCT-116, 10 μM
[10] = HOP-62, Non-small cell lung cancer HOP-62, 10 μM
[11] = HOP-92, Non-small cell lung cancer HOP-92, 10 μM
[12] = HT-29, Colon cancer HT29, 10 μM
[13] = Hs-578T, Breast cancer HS 578T, 10 μM
[14] = IGROV-1, Ovarian cancer IGROV1, 10 μM
[15] = LOX IMVI, Melanoma LOX IMVI, 10 μM
[16] = MCF7, Breast cancer MCF7, 10 μM
[17] = MDA-MB-231, Breast cancer MDA-MB-231/ATCC, 10 μM
[18] = MDA-MB-435, Melanoma MDA-MB-435, 10 μM
[19] = MDA-MB-468, Breast cancer MDA-MB-468, 10 μM
[20] = NCI-H23, Non-small cell lung cancer NCI-H23, 10 μM
[21] = NCI-H226, Non-small cell lung cancer NCI-H226, 10 μM
[22] = NCI-H322M, Non-small cell lung cancer NCI-H322M, 10 μM
[23] = NCI-H460, Non-small cell lung cancer NCI-H460, 10 μM
[24] = NCI-H522, Non-small cell lung cancer NCI-H522, 10 μM
[25] = NCI/ADR-RES, Ovarian cancer NCI/ADR-RES, 10 μM
[26] = OVCAR-4, Ovarian cancer OVCAR-4, 10 μM
[27] = OVCAR-5, Ovarian cancer OVCAR-5, 10 μM
[28] = RPMI-8226, Leukemia RPMI-8226, 10 μM
[29] = RXF 393, Renal cancer RXF 393, 10 μM
[30] = SF-268, CNS Cancer SF-268, 10 μM
[31] = SF-295, CNS Cancer SF-295, 10 μM
[32] = SF-539, CNS Cancer SF-539, 10 μM
[33] = SK-MEL-2, Melanoma SK-MEL-2, 10 μM
[34] = SK-MEL-5, Melanoma SK-MEL-5, 10 μM
[35] = SK-MEL-28, Melanoma SK-MEL-28, 10 μM
[36] = SK-OV-3, Ovarian cancer SK-OV-3, 10 μM
[37] = SN12C, Renal cancer SN12C, 10 μM
[38] = SNB-19, CNS Cancer SNB-19, 10 μM
[39] = SNB-75, CNS Cancer SNB-75, 10 μM
[40] = SW-620, Colon cancer SW-620, 10 μM
[41] = T47D, Breast cancer T-47D, 10 μM
[42] = TK-10, Renal cancer TK-10, 10 μM
[43] = UACC-62, Melanoma UACC-62, 10 μM
[44] = UACC-257, Melanoma UACC-257, 10 μM
[45] = UO-31, Renal cancer UO-31, 10 μM

C/C(=N\Nc1ccc(S(N)(=O)=O)cc1)c1cnn(-c2cc(=O)[nH]c3ccccc23)c1C [Compound 4a, (E)-4-(2-(1-(5-methyl-1-(2-oxo-1,2-dihydroquinolin-4-yl)-1H-pyrazol-4-yl)ethylidene) hydrazineyl)benzenesulfonamide]
inhibition at 10 µM (786-0, Renal cancer 786-0, 10 μM): 11.6% | inhibition at 10 µM [1]: < 5% | inhibition at 10 µM (ACHN, Renal cancer ACHN, 10 μM): < 5% | inhibition at 10 µM [2]: 34.3% | inhibition at 10 µM [3]: 5.51% | inhibition at 10 µM [4]: 7.82% | inhibition at 10 µM [5]: < 5% | inhibition at 10 µM [6]: < 5% | inhibition at 10 µM [7]: < 5% | inhibition at 10 µM [8]: < 5% | inhibition at 10 µM [9]: < 5% | inhibition at 10 µM (HL-60, Leukemia HL-60(TB), 10 μM): < 5% | inhibition at 10 µM [10]: 7.49% | inhibition at 10 µM [11]: < 5% | inhibition at 10 µM [12]: < 5% | inhibition at 10 µM [13]: 19.4% | inhibition at 10 µM [14]: < 5% | inhibition at 10 µM (K562, Leukemia K-562, 10 μM): < 5% | inhibition at 10 µM (KM12, Colon cancer KM12, 10 μM): < 5% | inhibition at 10 µM [15]: 5.22% | inhibition at 10 µM (Leukemia SR, 10 μM): 12.7% | inhibition at 10 µM [16]: 13.9% | inhibition at 10 µM [17]: 17.7% | inhibition at 10 µM [18]: < 5% | inhibition at 10 µM [19]: 24.8% | inhibition at 10 µM (MOLT-4, Leukemia MOLT-4, 10 μM): < 5% | inhibition at 10 µM (Melanoma MALM-3M, 10 μM): 30.1% | inhibition at 10 µM [20]: < 5% | inhibition at 10 µM [21]: 14.7% | inhibition at 10 µM [22]: 6.78% | inhibition at 10 µM [23]: < 5% | inhibition at 10 µM [24]: 18.9% | inhibition at 10 µM [25]: < 5% | inhibition at 10 µM [26]: 11.4% | inhibition at 10 µM [27]: < 5% | inhibition at 10 µM (OVCAR-8, Ovarian cancer OVCAR-8, 10 μM): < 5% | inhibition at 10 µM (Prostate cancer PC-3, 10 μM): 8.46% | inhibition at 10 µM [28]: 11.2% | inhibition at 10 µM [29]: < 5% | inhibition at 10 µM [30]: 14% | inhibition at 10 µM [31]: 5.93% | inhibition at 10 µM [32]: 8.96% | inhibition at 10 µM [33]: 12% | inhibition at 10 µM [34]: 8.23% | inhibition at 10 µM [35]: 6.43% | inhibition at 10 µM [36]: < 5% | inhibition at 10 µM [37]: < 5% | inhibition at 10 µM [38]: 9.13% | inhibition at 10 µM [39]: 10.1% | inhibition at 10 µM [40]: < 5% | inhibition at 10 µM [41]: 24.7% | inhibition at 10 µM [42]: < 5% | inhibition at 10 µM (U-251, CNS Cancer U251, 10 μM): 7.57% | inhibition at 10 µM [43]: 8.54% | inhibition at 10 µM [44]: < 5% | inhibition at 10 µM [45]: 22.6%

C/C(=N\Nc1ccc(S(N)(=O)=O)cc1)c1cnn(-c2cc(=O)[nH]c3ccc(C)cc23)c1C [Compound 4b, (E)-4-(2-(1-(5-methyl-1-(6-methyl-2-oxo-1,2-dihydroquinolin-4-yl)-1H-pyrazol-4-yl)ethylidene)hydrazineyl)benzenesulfonamide]
inhibition at 10 µM (A498, Renal cancer A498, 10 μM): 5.79% | inhibition at 10 µM [1]: < 5% | inhibition at 10 µM (ACHN, Renal cancer ACHN, 10 μM): < 5% | inhibition at 10 µM [2]: < 5% | inhibition at 10 µM [3]: 5.35% | inhibition at 10 µM [4]: 16% | inhibition at 10 µM [5]: < 5% | inhibition at 10 µM [6]: < 5% | inhibition at 10 µM (EKVX, Non-small cell lung cancer EKVX, 10 μM): < 5% | inhibition at 10 µM [7]: < 5% | inhibition at 10 µM [8]: < 5% | inhibition at 10 µM [9]: < 5% | inhibition at 10 µM [10]: 9.34% | inhibition at 10 µM [11]: < 5% | inhibition at 10 µM [12]: < 5% | inhibition at 10 µM [13]: 14.4% | inhibition at 10 µM [14]: < 5% | inhibition at 10 µM (K562, Leukemia K-562, 10 μM): 9.72% | inhibition at 10 µM [15]: 13% | inhibition at 10 µM (Leukemia SR, 10 μM): 40.3% | inhibition at 10 µM [16]: 16.1% | inhibition at 10 µM [17]: 18.8% | inhibition at 10 µM [18]: 8.01% | inhibition at 10 µM [19]: 41.7% | inhibition at 10 µM (MOLT-4, Leukemia MOLT-4, 10 μM): 16.1% | inhibition at 10 µM (Melanoma M14, 10 μM): < 5% | inhibition at 10 µM (Melanoma MALM-3M, 10 μM): 16.4% | inhibition at 10 µM [20]: < 5% | inhibition at 10 µM [21]: 15.9% | inhibition at 10 µM [22]: < 5% | inhibition at 10 µM [23]: < 5% | inhibition at 10 µM [24]: 27.9% | inhibition at 10 µM [25]: < 5% | inhibition at 10 µM [26]: 11.4% | inhibition at 10 µM [27]: < 5% | inhibition at 10 µM (Prostate cancer PC-3, 10 μM): 9.56% | inhibition at 10 µM [28]: < 5% | inhibition at 10 µM [29]: 9.76% | inhibition at 10 µM [30]: 13.3% | inhibition at 10 µM [31]: 11.1% | inhibition at 10 µM [32]: 16.9% | inhibition at 10 µM [33]: 7.35% | inhibition at 10 µM [34]: 9.87% | inhibition at 10 µM [35]: < 5% | inhibition at 10 µM [36]: < 5% | inhibition at 10 µM [37]: 5.72% | inhibition at 10 µM [38]: 12.6% | inhibition at 10 µM [39]: 12.2% | inhibition at 10 µM [40]: < 5% | inhibition at 10 µM [41]: 27.3% | inhibition at 10 µM [42]: < 5% | inhibition at 10 µM (U-251, CNS Cancer U251, 10 μM): 13% | inhibition at 10 µM [43]: 19.2% | inhibition at 10 µM [44]: < 5% | inhibition at 10 µM [45]: 11.7%
